Assay results published in patent publication US7332521B2, “Substituted indoles” (Wyeth, priority 2003, dated 2008).

Assays:
[1] = biological target: T1, recombinant human plasminogen activator inhibitor-1 (PAI-1) (Homo sapiens, UniProt P05121); assay: Primary screen for the PAI-1 inhibition (chromogenic tPA activity); assay type: biochemical; settings: pH 6.6 buffer; for inhibition at 10 µM: 10 μM test compound; for inhibition at 25 µM: 25 μM test compound
T1 construct: purchased Molecular Innovations, Royal Oak, Mich
Experimental: Test compounds are dissolved in DMSO at a final concentration of 10 mM, then diluted 100× in physiologic buffer. The inhibitory assay is initiated by the addition of the test compound (1-100 μM final concentration, maximum DMSO concentration of 0.2%) in a pH 6.6 buffer containing 140 nM recombinant human plasminogen activator inhibitor-1 (PAI-1; Molecular Innovations, Royal Oak, Mich.). Following a 1 hour incubation at room temperature, 70 nM of recombinant human tissue plasminogen activator (tPA) is added, and the combination of the test compound, PAI-1 and tPA is incubated for an additional 30 minutes. Following the second incubation, Spectrozyme-tPA (American Diagnostica, Greenwich, Conn.), a chromogenic substrate for tPA, is added and absorbance read at 405 nm at 0 and 60 minutes. Relative PAI-1 inhibition is equal to the residual tPA activity in the presence of the test compound and PAI-1. Control treatments include the complete inhibition of tPA by PAI-1 at the molar ratio employed (2:1), and the absence of any effect of the test compound on tPA alone.

[2] = biological target: human PAI-1 (Homo sapiens, UniProt P05121); assay: Assay for determining IC50 of inhibition of PAI-1 (active PAI-1 bound to tPA-coated plate); assay type: binding; settings: pH 7.5 buffer
Experimental: This assay is based upon the non-SDS dissociable interaction between tPA and active PAI-1. Assay plates are initially coated with human tPA (10 μg/ml). Test compounds of the present invention are dissolved in DMSO at 10 mM, then diluted with physiologic buffer (pH 7.5) to a final concentration of 1-50 μM. Test compounds are incubated with human PAI-1 (50 ng/ml) for 15 minutes at room temperature. The tPA-coated plate is washed with a solution of 0.05% Tween 20 and 0.1% BSA, then the plate is blocked with a solution of 3% BSA. An aliquot of the subtituted indole/PAI-1 solution is then added to the tPA-coated plate, incubated at room temperature for 1 hour, and washed. Active PAI-1 bound to the plate is assessed by adding an aliquot of a 1:1000 dilution of the 33B8 monoclonal antibody against human PAI-1, and incubating the plate at room temperature for 1 hour (Molecular Innovations, Royal Oak, Mich.). […] The plate is incubated 45 minutes at room temperature, and color development is determined at OD405nm. The quantitation of active PAI-1 bound to tPA at varying concentrations of the test compound is used to determine the IC50. Results are analyzed using a logarithmic best-fit equation. The assay sensitivity is 5 ng/ml of human PAI-1 as determined from a standard curve ranging from 0-100 ng/ml.

T1 sequence (P05121 24-402): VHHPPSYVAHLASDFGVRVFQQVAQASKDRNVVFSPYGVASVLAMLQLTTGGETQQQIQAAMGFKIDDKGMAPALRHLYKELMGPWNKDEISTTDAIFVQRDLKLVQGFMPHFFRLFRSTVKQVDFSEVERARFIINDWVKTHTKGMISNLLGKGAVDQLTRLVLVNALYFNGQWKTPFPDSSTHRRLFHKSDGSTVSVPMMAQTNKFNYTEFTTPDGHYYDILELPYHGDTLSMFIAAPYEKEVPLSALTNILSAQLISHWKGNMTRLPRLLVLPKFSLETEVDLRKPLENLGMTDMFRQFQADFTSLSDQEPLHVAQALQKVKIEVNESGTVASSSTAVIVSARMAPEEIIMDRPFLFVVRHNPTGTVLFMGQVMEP
human PAI-1, sequence (P05121 24-402): as above

Row | SMILES | inhibition at 10 µM [1] | inhibition at 25 µM [1] | IC50 [2]
1 | CC(C)(C)c1ccc(Nc2ccc3c(c2)c(-c2ccccc2)c(C(=O)O)n3Cc2ccccc2)cc1 [Compound 2, 1-benzyl-5-[(4-tert-butylphenyl)amino]-3-phenyl-1H-indole-2-carboxylic acid] | 45% | 73% | –
2 | Cc1cccc(Nc2ccc3c(c2)c(-c2ccccc2)c(C(=O)O)n3Cc2ccccc2)c1 [Compound 1, 1-benzyl-5-[(3-methylphenyl)amino]-3-phenyl-1H-indole-2-carboxylic acid] | 24% | 69% | –

The next lines start with the values.

Row | inhibition at 10 µM [1] | inhibition at 25 µM [1] | IC50 [2] | SMILES
3 | 36% | 71% | – | O=C(O)c1c(-c2ccccc2)c2cc(Nc3ccc(-c4ccccc4)cc3)ccc2n1Cc1ccccc1 [Compound 3, 1-benzyl-5-(1,1′-biphenyl-4-ylamino)-3-phenyl-1H-indole-2-carboxylic acid]
4 | 52% | 80% | 12 µM | CC(C)(C)c1ccc(Nc2ccc3c(c2)c(-c2ccccc2)c(C(=O)O)n3Cc2ccc(-c3ccccc3)cc2)cc1 [Compound 5, 1-(1,1′-biphenyl-4-ylmethyl)-5-[(4-tert-butylphenyl)amino]-3-phenyl-1H-indole-2-carboxylic acid]
5 | 39% | 66% | – | O=C(O)c1c(-c2ccccc2)c2cc(Nc3cccc4c3sc3ccccc34)ccc2n1Cc1ccccc1 [Compound 4, 1-benzyl-5-(dibenzo[b,d]thien-4-ylamino)-3-phenyl-1H-indole-2-carboxylic acid]
